Laboratory results from patent US20170198027A1 (priority 2012, published 2017).

What was measured:
[1] = test system: Apo E(-/-) mice fed with HFD/High Cholesterol diet; assay: lipid profile and atherosclerosis plaque in 18 ApoE mice, 4 weeks study; format: in vivo, mouse
Experimental: [table] […] Before HFD; 4 week: […] After 4 weeks treatment Oil Red staining procedure: • Sacrificed the mice and heart, aorta, and arteries were dissected under the dissecting microscope. […] Stain with freshly prepared Oil Red 0 working solution 10 mins. Image analysis procedure: • The unfolded vascular inner wall “Were scanned with Aperio ScanScope system and the area of atherosclerotic plaque was measured by Image-Proplus software after oil red 0 staining as follow picture shown. We measured the sum lesion areas and mean density using ipp software and calculated atherosclerotic percent. Area percent (%)” Sum area of atherosclerotic plaque (mm2) I whole area of vascular inner wall

6-OHDA lesioned rat = 6-OHDA lesioned rat model of Parkinson's disease (cylinder, adjusting step, rotation, TH staining); format: in vivo; conditions: prophylactic, high and moderate groups vs vehicle, trend
Experimental: 1. Animals: male SO rats were purchased from Shanghai Laboratory Animal Center (SLAC). They were housed under 21-23 OC, with 12 h light-dark life cycle. Food and water were given ad libitum.
2. 6uOHDA lesion: Rats were anesthetized with 60 mg/kg sodium pentobarbital. They were stereotaxic injected with total dose of 20 pg of fresh prepared 6-OHDA (dissolved in saline containing 0.05% ascorbic acid, calculated as free base) into tvvo sites of the left striatum, using the following coordinates (in mm relative to Bregma): AP+i 0.0, L −2.5, DV −5.0; AP −0.4, L −4.0, DV −5.5. The injection rate was i pi/min and a total of 2 iJI was injected at each site. The needle was left in place for 3 min before retracting.
3. Cylinder test: Rats were placed in a transparent cylinder (22 cm in diameter and 30 cm height). Animal would rear and support its body with one or both of its forelimbs. […] Each behavioral was expressed as percent use of left, right or both limb(s) relative to the total number.
4. […] The number of adjusting steps of each left and right forelimbs on both directions was recorded individually. […]
6. […] Number of positively stained cells in the left and right sides of SN in each section was counted to make the summation. The ratio of left/right was calculated.
7. Statistic analysis: Data were expressed as mean±SEI\tl and analyzed with ANOVA followed by Tukey test. […]

[2] = test system: ApoE ko mice fed with high fat diet
Source text: 10 ApoE ko mice were fed with regular chow diet and used as negative control group. 50 ApoE ko mice were fed with high fat diet (35% kcal fat, 1% cholesterol) for 8 weeks, and then the plasma samples were collected for lipid profile measurement before the treatment. 50 ApoE ko mice were assigned into 5 groups based on the fasting overnight plasma TC and HDL level.
19 Mar. 2012 to 6 Apr. 2012: Group the mice based on the TC and HDL level and start the treatment with 3 doses of antibody APOA1 by i.p daily on the weekday (The first dose was administered by iv injection
13 Apr. 2012-14 May 2012: The treatment with antibody APOA1 was changed to i.p injection every two days (Monday, Wednesday, and Friday) per client's instruction.
Antibody products were administrated by intraperitoneal injection every two days (Monday, Wednesday, and Friday). and the positive compound was administered by p.o every day.
5.4. Body weight and blood glucose measurement: The body weight was weighed weekly during the period of treatment. The fasting overnight blood glucose was measured at the end of study by Roche glucometer.
5.5 24 h food intake measurement: 24 hours food intake for each cage was measured weekly
5.6. Plasma lipid profile measurement: About 300 ul of blood sample was collected from the orbital vein for each mouse and centrifuged at 7000 rpm for 5 min at 4° C. and the plasma lipid profile was measured by Roche Modular automatic biochemistry analyzer in DaAn Medical Laboratory
After RAAS antibody products treatment for 8 weeks, all mice were sacrificed. Measured body weight and collected blood sample for each mouse. Weighed liver weight and saved a tiny piece of liver into 4% paraformaldehyde (PFA) fixation solution for further analysis. At same time, take the photos with heart, lung, aortas and two kidneys.
Scanning the glasses slides with the Aperio ScanScope system and analyze with the image proplus software to measure the area of atherosclerotic plaque session. The results were expressed as the percentage of the total aortic surface area covered by lesions. The operation procedure of software was briefly described as follow: Converted the sys version photos into JPG version, then calibrated it and subsequently selected the red regions and then calculate the total area automatically by image proplus software.
The results were expressed as the Mean±SEM and statistically evaluated by student's t-test.

human Apoiipoprotein AI, injection [APOA1]
blood plasma lipid profile ([1]; after 5 weeks treatment, 0.2 ml iv/ip): didn't improve the lipid profile | atherosclerotic plaques/lesions ([1]; vs vehicle group after 14 dosing): trend on reducing the atherosclerotic plaques/lesions | neuron count, damage caused by 6-OHDA lesion (6-OHDA lesioned rat): reduce the damage caused by 6-OHDA lesion | arteriosclerosis plaque lesion in the region of thoracic aorta (root plaque area) ([2]; APOA1 mid dose and low dose, not significant vs vehicle): trend of reducing the arteriosclerosis plaque lesion | plasma total cholesterol (TC) ([2]; after 8 week treatment, APOA1 low dose): significantly lower total cholesterol level | plasma TG level ([2]; after 8 weeks treatment): no effect | fasting overnight blood glucose ([2]; after 8 weeks treatment vs vehicle): no effect | ratio of liver weight/body weight ([2]; after 8 weeks treatment vs vehicle, RAAS antibody low dose, atorvastatin 20 mg/kg): reduced the ratio of liver weight/body weight significantly | atherosclerosis plaque lesion area of aorta ([2]; after 8 weeks treatment, APOA1 low dose): trend on reducing the plaque lesion area | deaths in the treatment groups ([2]; after 15 doses treatment): several mice died | atherosclerosis plaque lesion from the aortic root to right renal artery ([2]; atorvastatin p=0.08): trend of reducing the atherosclerosis plaque lesion in a dose dependent manner | plasma HDL ([2]; low dose, after 4 weeks treatment): significantly decrease the HDL level | body weight ([2]; vs vehicle group, atorvastatin after 5 weeks treatment): trend on reducing body weight but didn't reach statistic difference
